Measurements from US20230131025A1, “QUINOLYL PHOSPHINE OXIDE COMPOUND, AND COMPOSITION AND APPLICATION THEREOF” (Betta Pharmaceuticals Co., Ltd., priority 2020, published 2023).

Legend:
[1] = target: EGFR WT (Homo sapiens, UniProt P00533); experiment: Kinase inhibition assay (mobility shift); assay type: biochemical
Description: (§1) Experiment 1 Kinase Inhibition Assay Mobility shift assays were performed to determine inhibitory activity of compounds against EGFR^Δ19del/T790M/C797S, EGFR WT and IGF1R kinases. The enzymatic reaction scheme is as follows:
(§2) 1. Preparing 1*Kinase Buffer as follows:
(§3) 2. Preparing compound concentration gradient: the initial concentration of the compound tested in the assay was 3,000 nM or 100 nM, which is then diluted to be 100-fold final concentration in 100% DMSO in a 384-source plate. Compounds in 10 concentrations were diluted in a 3-fold gradient with Precision. 250 nL of compound in 100-fold final concentration was transferred to OptiPlate-384F plate by using a dispenser named Echo 550.
(§4) 3. Preparing kinase solution at 2.5-fold the final concentration with 1×kinase buffer.
(§5) 4. Adding 10 μL of kinase solution at 2.5-fold the final concentration to compound wells and positive control wells respectively; and adding 10 μL of 1×kinase buffer to negative control wells.
(§6) 5. Centrifuging the wells at 1,000 rpm for 30 seconds, mixing the reaction plate well by shaking and incubating it at room temperature for 10 minutes.
(§7) 6. Preparing a mixed solution of ATP and kinase substrate at 5-fold/3-fold the final concentration with 1×Kinase buffer, respectively.
(§8) 7. Initiating the reaction by adding 15 μL of the mixed solution of ATP and kinase substrate at 5-fold/3-fold the final concentration.
(§9) 8. Centrifuging the 384-well plate at 1,000 rpm for 30 seconds, mixing the reaction plate well by shaking and incubating it at room temperature for a corresponding time.
(§10) 9. Adding 30 μL of assay stop solution to stop the kinase reaction, and centrifuging the plate at 1,000 rpm for 30 seconds and mixing it well by shaking.
(§11) 10. Reading the conversion rate with Caliper EZ Reader.
(§12) [formula] • wherein, “Conversion % sample” is the conversion rate reading of the sample;
(§13) “Conversion %_min” is the mean value of the negative control wells, representing the conversion rate readings of the well without enzymatic activity; “Conversion %_max” is the mean value of the positive control wells, representing the conversion rate readings of the wells without compound inhibition. • Dose-response curve is plotted with the logarithmic concentration on the X-axis and percent inhibition on the Y-axis. The fitting of the dose-response curve is made with the module “log(inhibitor) vs. response—Variable slope” of the analysis software GraphPad Prism 5, so that the IC50 value of each compound on enzymatic activity is obtained. • The calculation formula is: Y=Bottom+(Top−Bottom)/(1+10^((Log IC50−X)*HillSlope)).

[2] = target: EGFR Δ19del/T790M/C797S (Homo sapiens, UniProt P00533, T790M/C797S, form not given); experiment: Kinase inhibition assay (mobility shift); assay type: biochemical
Chain of EGFR Δ19del/T790M/C797S (P00533 with tags, fused parts or gaps DEL746-750/T790M/C797S, form open): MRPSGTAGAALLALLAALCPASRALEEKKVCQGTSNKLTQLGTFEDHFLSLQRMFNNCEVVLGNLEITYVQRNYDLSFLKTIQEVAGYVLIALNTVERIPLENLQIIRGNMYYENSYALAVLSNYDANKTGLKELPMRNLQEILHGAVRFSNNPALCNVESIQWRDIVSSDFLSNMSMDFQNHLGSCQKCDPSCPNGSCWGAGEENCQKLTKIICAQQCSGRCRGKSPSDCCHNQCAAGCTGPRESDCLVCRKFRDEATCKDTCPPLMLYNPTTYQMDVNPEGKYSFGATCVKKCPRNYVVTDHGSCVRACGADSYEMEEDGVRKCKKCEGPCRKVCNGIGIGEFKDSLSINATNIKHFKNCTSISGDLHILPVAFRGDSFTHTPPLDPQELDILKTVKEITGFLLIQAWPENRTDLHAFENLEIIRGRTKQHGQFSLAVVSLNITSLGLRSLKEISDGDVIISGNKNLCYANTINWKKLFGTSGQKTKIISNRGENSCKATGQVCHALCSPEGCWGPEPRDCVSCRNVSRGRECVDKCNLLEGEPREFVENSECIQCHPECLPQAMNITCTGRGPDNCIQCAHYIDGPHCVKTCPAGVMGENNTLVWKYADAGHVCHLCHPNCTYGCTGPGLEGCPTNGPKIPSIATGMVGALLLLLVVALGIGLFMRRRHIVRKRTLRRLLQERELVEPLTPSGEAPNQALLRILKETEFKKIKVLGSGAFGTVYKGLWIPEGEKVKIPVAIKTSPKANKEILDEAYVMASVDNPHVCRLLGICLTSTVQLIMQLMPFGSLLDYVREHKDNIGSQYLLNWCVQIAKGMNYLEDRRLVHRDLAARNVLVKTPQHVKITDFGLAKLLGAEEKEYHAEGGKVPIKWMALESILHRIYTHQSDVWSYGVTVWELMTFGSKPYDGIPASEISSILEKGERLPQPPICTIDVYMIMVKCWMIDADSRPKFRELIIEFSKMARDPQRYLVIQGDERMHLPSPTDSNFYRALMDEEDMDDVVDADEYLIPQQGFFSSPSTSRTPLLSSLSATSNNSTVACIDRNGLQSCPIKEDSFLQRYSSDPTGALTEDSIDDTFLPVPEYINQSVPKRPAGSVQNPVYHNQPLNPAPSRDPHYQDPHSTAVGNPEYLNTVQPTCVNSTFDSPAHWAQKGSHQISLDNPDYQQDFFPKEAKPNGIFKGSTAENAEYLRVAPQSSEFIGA
Description: as §1, §2, §3, §4, §5, §6, §7, §8, §9, §10, §11, §12, §13

[3] = target: IGF1R (Homo sapiens, UniProt P08069); experiment: Kinase inhibition assay (mobility shift); assay type: biochemical
Chain of IGF1R (P08069 31-1367, species assumed): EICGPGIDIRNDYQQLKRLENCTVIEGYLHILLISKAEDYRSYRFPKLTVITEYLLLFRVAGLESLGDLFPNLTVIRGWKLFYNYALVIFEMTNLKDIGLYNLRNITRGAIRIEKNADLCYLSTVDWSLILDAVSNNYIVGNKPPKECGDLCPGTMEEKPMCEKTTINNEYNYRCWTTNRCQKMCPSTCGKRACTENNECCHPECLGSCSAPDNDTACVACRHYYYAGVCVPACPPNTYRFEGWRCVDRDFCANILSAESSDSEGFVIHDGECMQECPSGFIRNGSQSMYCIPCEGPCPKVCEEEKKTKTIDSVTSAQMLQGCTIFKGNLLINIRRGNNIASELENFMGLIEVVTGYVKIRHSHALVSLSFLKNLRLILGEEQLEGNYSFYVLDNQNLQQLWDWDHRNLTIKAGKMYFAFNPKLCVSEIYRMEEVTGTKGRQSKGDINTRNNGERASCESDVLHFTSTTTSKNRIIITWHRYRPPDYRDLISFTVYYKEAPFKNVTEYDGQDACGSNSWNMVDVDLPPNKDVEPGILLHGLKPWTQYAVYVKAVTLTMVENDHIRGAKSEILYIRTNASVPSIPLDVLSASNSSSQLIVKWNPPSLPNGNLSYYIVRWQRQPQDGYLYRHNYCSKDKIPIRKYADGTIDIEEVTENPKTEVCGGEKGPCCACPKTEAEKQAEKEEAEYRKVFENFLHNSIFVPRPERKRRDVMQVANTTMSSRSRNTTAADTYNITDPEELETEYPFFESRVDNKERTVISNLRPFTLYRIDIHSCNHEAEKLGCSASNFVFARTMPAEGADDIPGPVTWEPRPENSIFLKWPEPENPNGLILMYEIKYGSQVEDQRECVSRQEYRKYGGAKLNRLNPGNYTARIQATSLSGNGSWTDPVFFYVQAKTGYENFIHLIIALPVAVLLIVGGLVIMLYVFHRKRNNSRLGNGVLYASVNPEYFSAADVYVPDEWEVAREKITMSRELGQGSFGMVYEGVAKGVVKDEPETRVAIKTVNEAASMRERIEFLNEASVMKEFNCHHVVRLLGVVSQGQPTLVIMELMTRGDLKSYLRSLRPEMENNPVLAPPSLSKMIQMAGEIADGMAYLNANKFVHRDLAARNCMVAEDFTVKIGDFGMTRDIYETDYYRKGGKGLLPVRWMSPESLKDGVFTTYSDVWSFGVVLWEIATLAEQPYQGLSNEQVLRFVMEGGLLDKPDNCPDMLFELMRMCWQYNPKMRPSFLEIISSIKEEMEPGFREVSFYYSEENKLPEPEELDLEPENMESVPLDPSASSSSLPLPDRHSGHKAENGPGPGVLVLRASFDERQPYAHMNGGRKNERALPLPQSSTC
Description: as §1, §2, §3, §4, §5, §6, §7, §8, §9, §10, §11, §12, §13

[4] = target: Ba/F3 EGFR WT (Homo sapiens, UniProt P00533); experiment: Cell proliferation experiment (CellTiter Glo, 72 hours); assay type: cell-based; settings: read-out: BaF3 EGFR WT IC50
Chain of Ba/F3 EGFR WT (P00533 whole entry, change not shown): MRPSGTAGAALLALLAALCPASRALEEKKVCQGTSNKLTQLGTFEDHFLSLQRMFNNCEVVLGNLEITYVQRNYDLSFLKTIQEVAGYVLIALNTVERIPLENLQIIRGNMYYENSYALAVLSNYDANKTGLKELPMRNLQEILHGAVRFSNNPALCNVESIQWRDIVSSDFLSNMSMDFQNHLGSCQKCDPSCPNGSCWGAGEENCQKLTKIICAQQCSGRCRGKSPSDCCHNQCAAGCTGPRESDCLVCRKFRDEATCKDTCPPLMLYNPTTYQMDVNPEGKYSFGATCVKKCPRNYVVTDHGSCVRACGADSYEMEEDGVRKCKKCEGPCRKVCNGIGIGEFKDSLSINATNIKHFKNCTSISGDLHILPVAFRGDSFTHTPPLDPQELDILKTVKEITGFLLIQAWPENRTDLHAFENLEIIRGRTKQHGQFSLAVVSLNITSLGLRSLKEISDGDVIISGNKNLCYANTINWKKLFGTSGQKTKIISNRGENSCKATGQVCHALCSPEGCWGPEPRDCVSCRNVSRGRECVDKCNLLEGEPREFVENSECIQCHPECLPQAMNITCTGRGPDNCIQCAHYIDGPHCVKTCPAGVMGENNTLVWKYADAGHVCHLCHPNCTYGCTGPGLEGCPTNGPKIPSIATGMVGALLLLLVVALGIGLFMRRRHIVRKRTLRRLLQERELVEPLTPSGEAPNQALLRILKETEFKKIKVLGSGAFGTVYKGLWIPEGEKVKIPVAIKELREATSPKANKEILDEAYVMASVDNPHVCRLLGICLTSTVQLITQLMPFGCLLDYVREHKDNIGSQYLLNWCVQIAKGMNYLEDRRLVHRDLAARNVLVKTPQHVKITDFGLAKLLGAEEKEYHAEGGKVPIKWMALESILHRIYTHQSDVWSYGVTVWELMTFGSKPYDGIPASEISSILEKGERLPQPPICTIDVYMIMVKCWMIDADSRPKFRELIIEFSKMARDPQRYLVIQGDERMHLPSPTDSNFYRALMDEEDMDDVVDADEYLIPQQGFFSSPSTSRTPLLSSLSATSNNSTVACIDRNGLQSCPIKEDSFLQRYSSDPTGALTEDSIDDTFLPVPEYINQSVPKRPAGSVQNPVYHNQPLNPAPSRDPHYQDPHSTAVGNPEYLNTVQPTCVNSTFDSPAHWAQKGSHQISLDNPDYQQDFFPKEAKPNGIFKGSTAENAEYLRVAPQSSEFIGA
Description: (§14) Experiment 2 Cell Proliferation Experiment
(§15) Suspension cells: Ba/F3 cells with stable overexpression of Δ19del/T790M/C797S mutant gene, named Ba/F3-Δ19del/T790M/C797S; Ba/F3 cells with overexpression of EGFR WT, named Ba/F3 EGFR WT.
(§16) RPMI 1640 with 10% FBS and 1% Penicillin-Streptomycin, or DMEM with 10% FBS and 1% Penicillin-Streptomycin.
(§17) a) Diluting compounds being tested (20 mM stock solutions), as an initial concentration, to 10 mM with 100% DMSO, followed by diluting compounds serially in a 3-fold gradient such that each compound is diluted into 12 concentrations (Cat #P-05525, Labcyte).
(§18) b) Diluting the above compound solutions for 100-fold with culture medium to prepare 10-fold working solution.
(§19) b) Seeding cells into 96-well cell culture plate at a density of 2000 or 3000 cells/well, with 135 μL/well.
(§20) a) Adding the compound prepared in step 2 to the cell plate at 15 μL per well, resulting in a final maximum concentration of 10000 nM or 1111 nM. The compounds is diluted serially in a 3-fold gradient such that each compound is diluted into 9 concentrations, wherein the final concentration of DMSO is 0.1%. Blank control wells are added with medium (0.1% DMSO).
(§21) b) Re-incubating the cells in an incubator for 72 hours. 5. Detection
(§22) a) Adding 50 μL of CTG reagent (CellTiter Glo kit, promega, Cat #G7573) to the 96-well cell culture plate.
(§23) b) Shaking the plate for 2 minutes and reacting at room temperature for 10 minutes.
(§24) c) Reading the luminescence signal value (Lum) using PerkinElmer reader.
(§25) The cell survival inhibition rate of each well was calculated. The data was analyzed by GraphPad Prism 6.0 software. The dose-response curve was obtained by fitting the data with a nonlinear regression equation. The IC50 of each compound was calculated as follows:
(§26) Cell survival inhibition rate (%)=(1−(Lumcompound tested−Lummedium control)/(Lumcell control−Lummedium control))×100%
(§27) Y=Min+(Max−Min)/(1+10^((Log IC50−X)*Slope));
(§28) X: logarithm of compound concentration. Y: cell survival inhibition rate.

[5] = target: Ba/F3-Δ19del/T790M/C797S (Homo sapiens, UniProt P00533, T790M/C797S, cells depend on it, form not given); experiment: as above; assay type: cell-based; settings: read-out: Ba/F3/EGFR Δ19del/T790M/C797S IC50
Chain of Ba/F3-Δ19del/T790M/C797S (P00533 with tags, fused parts or gaps DEL746-750/T790M/C797S, form open): as the sequence (P00533 with tags, fused parts or gaps DEL746-750/T790M/C797S, form open) above
Description: as §14, §15, §16, §17, §18, §19, §20, §21, §22, §23, §24, §25, §26, §27, §28

[6] = system: human epidermal cancer cells A431 carrying EGFR WT; experiment: as above; assay type: cell-based; settings: Homo sapiens, A-431
Description: as §14
Adherent cells: human epidermal cancer cells A431 carrying EGFR WT.
as §16, §17, §18, §19, §20, §21, §22, §23, §24, §25, §26, §27, §28

Structure (SMILES)	IC50 [1] [nM]	IC50 [2] [nM]	IC50 [3] [nM]	GI50 [4] [nM]	GI50 [5] [nM]	IC50 [6] [nM]
COc1cc(Nc2ncc(Br)c(Nc3ccc4nc(C5CC5)ccc4c3P(C)(C)=O)n2)c(C)cc1N1CCOCC1 [Compound J-001, (6-((5-Bromo-2-((5-methoxy-2-methyl-4-morpholinylphenyl)amino)pyrimidin-4-yl)amino)-2-cyclopropylquinoline-5-yl)dimethylphosphine oxide]	51.7	0.5	63.6	396	26.5	1350
CCc1cc(N2CCOCC2)c(OC)cc1Nc1ncc(Br)c(Nc2ccc3nc(C4CC4)ccc3c2P(C)(C)=O)n1 [Compound J-003, (6-((5-Bromo-2-((2-ethyl-5-methoxy-4-morpholinylphenyl)amino)pyrimidin-4-yl)amino)-2-cyclopropylquinoline-5-yl)dimethylphosphine oxide]	172	0.5	189	646	25.7	3040
COc1cc(Nc2ncc(Br)c(Nc3ccc4nc(C5CC5)ccc4c3P(C)(C)=O)n2)c(C(C)C)cc1N1CCOCC1 [Compound J-005, (6-((5-Bromo-2-((2-isopropyl-5-methoxy-4-morpholinylphenyl)amino)pyrimidin-4-yl)amino)-2-cyclopropylquinoline-5-yl)dimethylphosphine oxide]	132	0.5	74.4	698	27	6140
COc1cc(Nc2ncc(Br)c(Nc3ccc4nc(-c5cnn(C)c5)ccc4c3P(C)(C)=O)n2)c(C)cc1N1CCOCC1 [Compound J-007, (6-((5-Bromo-2-((5-methoxy-2-methyl-4-morpholinylphenyl)amino)pyrimidin-4-yl)amino)-2-(1-methyl-1H-pyrazol-4-yl)quinolin-5-yl)dimethylphosphine oxide]	30.3	0.2	41	147	6	1030
COc1cc(Nc2ncc(Br)c(Nc3ccc4nc(C5CC5)ccc4c3P(C)(C)=O)n2)c(C)cc1N1CCC(N(C)C)CC1 [Compound J-009, (6-((5-Bromo-2-((4-(4-(dimethylamino)piperidin-1-yl)-5-methoxy-2-methylphenyl)amino)pyrimidine-4-yl)amino)-2-cyclopropylquinolin-5-yl)dimethylphosphine oxide]	14.4	0.3	14.8	168	16.3	384
COc1cc(N2CCN(C)CC2)c(C)cc1Nc1ncc(Br)c(Nc2ccc3nc(C4CC4)ccc3c2P(C)(C)=O)n1 [Compound J-010, (6-((5-Bromo-2-((2-methoxy-5-methyl-4-(4-methylpiperazin-1-yl)phenyl)amino)pyrimidin-4-yl)amino)-2-cyclopropylquinolin-5-yl)dimethylphosphine oxide]	79	0.2	142	187	11.5	969
COc1cc(N2CCC(N3CCN(C)CC3)CC2)c(F)cc1Nc1ncc(Br)c(Nc2ccc3nc(C4CC4)ccc3c2P(C)(C)=O)n1 [Compound J-019, (6-((5-Bromo-2-((5-fluoro-2-methoxy-4-(4-(4-methylpiperazin-1-yl)piperidin-1-yl)phenyl)amino)pyrimidin-4-yl)amino)-2-cyclopropylquinolin-5-yl)dimethylphosphine oxide]	16	0.33	222			
COc1cc(Nc2ncc(Br)c(Nc3ccc4nc(C5CC5)ccc4c3P(C)(C)=O)n2)c(C#N)cc1N1CCC(N2CCN(C)CC2)CC1 [Compound J-025, 2-((5-Bromo-4-((2-cyclopropyl-5-(dimethylphosphineoxide)quinolin-6-yl)amino)pyrimidin-2-yl)amino)-4-methoxy-5-(4-(4-methylpiperazin-1-yl)piperidin-1-yl)benzonitrile]	2310	43	> 3000			
COc1cc(Nc2ncc(Br)c(Nc3ccc4nc(C5CC5)ccc4c3P(C)(C)=O)n2)c(C2CCOCC2)cc1N1CCC(N2CCN(C)CC2)CC1 [Compound J-026, (6-((5-Bromo-2-((5-methoxy-4-(4-(4-methylpiperazin-1-yl)piperidin-1-yl)-2-(tetrahydro-2H-pyran-4-yl)phenyl)amino)pyrimidin-4-yl)amino)-2-cyclopropylquinolin-5-yl)dimethylphosphine oxide]	> 3000	36	> 3000			
CCc1cc(N2CCC(N3CCN(C)CC3)CC2)c(OC)cc1Nc1ncc(Br)c(Nc2ccc3nc(C4CC4)ccc3c2P(C)(C)=O)n1 [Compound J-031, (6-((5-Bromo-2-((2-ethyl-5-methoxy-4-(4-(4-methylpiperazin-1-yl)piperidin-1-yl)phenyl)amino)pyrimidin-4-yl)amino)-2-cyclopropylquinolin-5-yl)dimethylphosphine oxide]	64	0.5	103			
COc1cc(N2CCN(C3CCCC3)CC2)c(C)cc1Nc1ncc(Br)c(Nc2ccc3nc(C4CC4)ccc3c2P(C)(C)=O)n1 [Compound J-032, (6-((5-Bromo-2-((4-(4-cyclopentylpiperazin-1-yl)-2-methoxy-5-methylphenyl)amino)pyrimidin-4-yl)amino)-2-cyclopropylquinolin-5-yl)dimethylphosphine oxide]	121	1	170			
COc1cc(N2CCN(C3CC3)CC2)c(C)cc1Nc1ncc(Br)c(Nc2ccc3nc(C4CC4)ccc3c2P(C)(C)=O)n1 [Compound J-038, (6-((5-Bromo-2-((4-(4-cyclopropylpiperazin-1-yl)-2-methoxy-5-methylphenyl)amino)pyrimidin-4-yl)amino)-2-cyclopropylquinolin-5-yl)dimethylphosphine oxide]	171	0.9	586			
COc1cc(-c2ccc(N3CCN(C)CC3)cc2)c(C)cc1Nc1ncc(Br)c(Nc2ccc3nc(C4CC4)ccc3c2P(C)(C)=O)n1 [Compound J-040, (6-((5-Bromo-2-((5-methoxy-2-methyl-4′-(4-methylpiperazin-1-yl)-[1,1′-biphenyl]-4-yl)amino)pyrimidin-4-yl)amino)-2-cyclopropylquinolin-5-yl)dimethylphosphine oxide]	550	6	1160			
